The values below come from patent publication US7655756B2 (Johnson & Johnson Pharmaceutical Research & Development, LLC, priority 2005, dated 2010).

In general, ΔTm refers to the shift of the melting midpoint relative to a reference.

Where two headings read alike, the source gives them in different places.

In assay [1] the target is T1, ERRβ (Homo sapiens, UniProt O95718).
T1 sequence (O95718 208-432 limits assumed): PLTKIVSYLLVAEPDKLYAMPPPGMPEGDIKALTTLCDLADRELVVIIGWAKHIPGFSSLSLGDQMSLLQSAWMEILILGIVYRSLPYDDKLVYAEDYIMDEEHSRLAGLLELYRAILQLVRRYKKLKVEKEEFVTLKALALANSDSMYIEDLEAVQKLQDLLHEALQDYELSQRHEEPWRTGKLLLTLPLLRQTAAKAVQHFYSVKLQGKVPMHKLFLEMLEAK
The assay can be described thus: ThermoFluor thermal shift assay, ERRβ. It counts as binding. The conditions noted are these: for ΔTm at 100 µM / ΔTm, thermal stabilization of ERRβ: 100 μM test compound, 0.1 mg/mL protein, 25 mM HEPES pH 8.0, Tm free protein 47.5 °C; for ΔTm at 100 µM: read-out: ΔTm, thermal stabilization of ERRβ; for Kd: read-out: Estimated dissociation constant, ERRβ.

Assay [2] addresses T2, ERα (Homo sapiens, UniProt P03372).
T2 sequence (P03372 1-595): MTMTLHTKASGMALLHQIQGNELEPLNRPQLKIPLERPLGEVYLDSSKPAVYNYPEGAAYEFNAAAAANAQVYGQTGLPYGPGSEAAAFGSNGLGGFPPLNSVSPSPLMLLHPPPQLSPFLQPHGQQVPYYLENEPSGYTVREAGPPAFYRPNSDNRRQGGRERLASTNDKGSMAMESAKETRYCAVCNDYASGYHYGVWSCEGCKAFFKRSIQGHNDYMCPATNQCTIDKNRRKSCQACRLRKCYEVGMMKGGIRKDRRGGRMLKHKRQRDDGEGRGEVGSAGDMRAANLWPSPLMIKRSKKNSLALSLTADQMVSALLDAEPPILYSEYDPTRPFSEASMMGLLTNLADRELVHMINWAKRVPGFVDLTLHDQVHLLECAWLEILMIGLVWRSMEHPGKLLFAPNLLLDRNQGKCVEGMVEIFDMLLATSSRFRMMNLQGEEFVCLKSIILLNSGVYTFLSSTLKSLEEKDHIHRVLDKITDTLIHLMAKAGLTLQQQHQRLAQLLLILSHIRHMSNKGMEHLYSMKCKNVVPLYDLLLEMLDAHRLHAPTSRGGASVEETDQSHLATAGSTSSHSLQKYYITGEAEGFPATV
The experiment in a line: ThermoFluor thermal shift assay, ERα. It counts as binding.

Assay [3] has as its target T3, ERRα (Homo sapiens, UniProt P11474).
T3 sequence (P11474 193-421 limits assumed): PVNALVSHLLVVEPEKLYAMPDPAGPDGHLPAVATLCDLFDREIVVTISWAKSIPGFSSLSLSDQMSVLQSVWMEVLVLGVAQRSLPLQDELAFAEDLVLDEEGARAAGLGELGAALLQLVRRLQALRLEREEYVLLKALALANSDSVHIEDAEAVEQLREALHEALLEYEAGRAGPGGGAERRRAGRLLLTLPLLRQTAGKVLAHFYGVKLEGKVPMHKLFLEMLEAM
The experiment in a line: ThermoFluor thermal shift assay, ERRα. The class given is binding. Conditions: for ΔTm at 100 µM / ΔTm, thermal stabilization of ERRα: 100 μM test compound, 0.1 mg/mL protein, 25 mM HEPES pH 8.0, 25 μM ANS, 2% DMSO, Tm free protein 54.4 °C; for ΔTm at 100 µM: read-out: ΔTm, thermal stabilization of ERRα.

The target of assay [4] is ERβ (Homo sapiens, UniProt Q92731). The experiment in a line: ThermoFluor thermal shift assay, ERβ. The class given is binding. The conditions noted are these: for Kd: calculated at reference temperature 25 °C from ΔTm of Table II, ΔHu 122 kcal/mol, read-out: Estimated dissociation constant, ERγ.
In assay [5] the target is T4, ligand binding domain of ERRγ (Homo sapiens, UniProt P62508).
T4 construct: 6His; made in house; host or cells: E. coli BL21(DE3)
T4 sequence (P62508 229-458): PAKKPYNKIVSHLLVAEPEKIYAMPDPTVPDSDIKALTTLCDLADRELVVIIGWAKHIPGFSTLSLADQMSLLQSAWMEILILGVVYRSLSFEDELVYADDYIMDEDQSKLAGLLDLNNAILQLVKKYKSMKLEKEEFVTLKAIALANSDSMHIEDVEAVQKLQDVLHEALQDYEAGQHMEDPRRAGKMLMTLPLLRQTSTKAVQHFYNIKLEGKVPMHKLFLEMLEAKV
The experiment in a line: ThermoFluor thermal shift assay, ERRγ ligand binding domain. The conditions noted are these: for ΔTm at 100 µM / ΔTm, thermal stabilization of ERRγ: 100 μM test compound, 0.1 mg/mL protein, 25 mM HEPES pH 8.0, Tm free protein 49.6 °C; for ΔTm at 100 µM: read-out: ΔTm, thermal stabilization of ERRγ; for Kd: read-out: Estimated dissociation constant, ERRγ. How it is done: The vector was in E. coli BL21(DE3) and cultured in Minimal media (M9) at 37° C. to an OD595 0.6-0.8, followed by induction at 15° C. with 0.4 mM IPTG for 20 hours. The next day, the culture was harvested and lysed in buffer A (Buffer A: 20 mM Tris-HCl, pH 7.5, 0.4 M NaCl and 5 mM Imidazole) using an Emulsiflex-C5 french press (Avestin). Lysates were spun at 40,000×g for 45 minutes to remove insoluble material. The clarified lysate was applied on a Ni-NTA column and eluted with a linear gradient of imidazole. The protein was further purified by applying the eluent on a Superdex 200 HR 10/30 column (Amersham Pharmacia Biotech) equilibrated with Buffer B (Buffer B: 20 mM Tris-HCl pH 7.5, 0.2M NaCl, 1 mM EDTA and 1 mM DTT). […] Fractions were pulled and concentrated to 4 mg/ml and frozen in liquid nitrogen and stored at −80° C.
The ligand binding domain of ERRγ was screened against a library of known estrogen activators and a generic drug library using ThermoFluor®. ThermoFluor® is a miniaturized thermal shift assay, that has been developed for HTS applications; as a secondary assay for confirmation and characterization of hits; and as a functional assay to characterize orphan proteins. ThermoFluor® exploits the well-described phenomenon of ligand induced stabilization of macromolecules. Ligand binding energy adds directly to the ground state energy of a macromolecule and results in increased thermal stability. The degree of stabilization is proportional to the binding affinity of the ligand for the macromolecule.
Assay plates were prepared by dispensing 2 μL of a protein-dye solution and 2 μL of the test compound in a 384-well plate. […] Finally 1 μL of mineral oil was dispensed on top to prevent evaporation during the high throughput screen (HTS). ThermoFluor® is an HTS assay that measures protein unfolding based on fluorescence detection of the denatured form of the protein. The reporter for the protein unfolding event is the environmentally sensitive dye ANS that is incorporated in the screening buffer. During a typical experiment the 384-well plate is heated at a ramping rate of 1° C./min and the thermal unfolding of the protein is monitored at 1° C. intervals by measuring fluorescence changes detected through a CCD camera. Captured images are integrated and a melting curve is generated that relates fluorescence to fraction of unfolded protein as a function of temperature. […] Hits were identified from the screen by measuring an increase in the melting temperature of the protein.
In order to estimate binding affinities, it was taken into account that the oligomeric state of ERRγ which is a dimer (N2), and that of a single ligand (Lf) can interact per monomer subunit with equal affinity. The melting curve for such a system is described by the following three equilibria:
To compare dissociation constants at a common reference temperature, Tref, the following equation was used: […]
In the thermodynamic treatment of the data the following assumptions were made: i) the small ligand interacts only with the folded state of the protein, ii) the reactions are reversible; iii) the unfolding protein reaction is a two-state process and iv) ideal dilute solutions are being used (specific activity for protein and ligands is equal to 1).

[6] abbreviates: 100 μM test compound, 0.1 mg/mL protein, 25 mM HEPES pH 8.0, Tm free protein 41.1 °C, read-out: ΔTm, thermal stabilization of ERβ.
The mark [7] stands for this setting: 100 μM test compound, 0.1 mg/mL protein, 25 mM HEPES pH 8.0, Tm free protein 39.1 °C.
Where [8] appears, read: calculated at reference temperature 25 °C from ΔTm of Table II, ΔHu 112 kcal/mol, read-out: Estimated dissociation constant, ERα.
The mark [9] stands for this setting: 100 μM test compound, 0.1 mg/mL protein, 25 mM HEPES pH 8.0, Tm free protein 41.1 °C.
The mark [10] stands for this setting: 100 μM test compound, 0.1 mg/mL protein, 25 mM HEPES pH 8.0, Tm free protein 39.1 °C, read-out: ΔTm, thermal stabilization of ERα.

Sequence of ERβ (Q92731 whole entry, species assumed, the tested form may be a part): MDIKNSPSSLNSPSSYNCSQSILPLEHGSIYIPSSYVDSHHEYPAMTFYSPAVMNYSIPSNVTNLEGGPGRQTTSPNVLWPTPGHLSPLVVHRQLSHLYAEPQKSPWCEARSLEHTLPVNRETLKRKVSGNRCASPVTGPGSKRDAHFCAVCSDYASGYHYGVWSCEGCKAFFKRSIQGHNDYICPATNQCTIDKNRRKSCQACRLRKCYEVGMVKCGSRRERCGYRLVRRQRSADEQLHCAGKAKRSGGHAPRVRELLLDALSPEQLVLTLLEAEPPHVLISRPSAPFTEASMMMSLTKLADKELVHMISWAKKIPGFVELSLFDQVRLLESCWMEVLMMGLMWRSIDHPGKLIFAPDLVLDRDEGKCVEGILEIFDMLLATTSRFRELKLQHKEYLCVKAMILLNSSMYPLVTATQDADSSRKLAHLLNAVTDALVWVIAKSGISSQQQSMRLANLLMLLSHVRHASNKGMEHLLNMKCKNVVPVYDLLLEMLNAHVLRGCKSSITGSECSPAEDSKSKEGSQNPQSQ

As to `C[C@]12CC[C@H]3[C@@H](CCC4=C[C@H](O)CC[C@@H]43)[C@@H]1CC[C@@H]2O` [4-estrene-3-α-17-β-diol], the ΔTm at 100 µM in assay [1] was -0.1 °C; in assay [2] (pH 8, read-out: ΔTm, thermal stabilization of ERα), 4.9 °C; in assay [3] it was 0 °C; in assay [4] (setting [6]) it was 7.7 °C; in assay [5] it was -0.1 °C. Also, the Kd was 1270 nM in assay [2] and 157 nM in assay [4].

As to `COc1cc2c(cc1O)CC[C@@H]1[C@@H]2CC[C@]2(C)[C@@H](O)CC[C@@H]12` [2-methoxy-estradiol], in assay [1], the “ΔTm, thermal stabilization of ERRβ” value was −0.1 °C. In addition, in assay [2] (setting [7]), the “ΔTm, thermal stabilization of ERα” value amounted to 3.5 °C. The Kd in assay [2] (setting [8]) was 2660 nM; in assay [4], 2310 nM. In addition, the “ΔTm, thermal stabilization of ERRα” value in assay [3] is 0.1 °C. Further, the “ΔTm, thermal stabilization of ERβ” value in assay [4] (setting [9]) stood at 2.9 °C. For the same compound, the “ΔTm, thermal stabilization of ERRγ” value in assay [5] worked out at 0.0 °C.

On to `CCN(CC)CCOc1ccc(C(=C(Cl)c2ccccc2)c2ccccc2)cc1` [clomiphene], for which the shift in melting temperature (ΔTm) at 100 µM in assay [4] (setting [6]) came out at 9.7 °C. Further, the Kd in assay [4] was 52.1 nM.

For `N#CC(Cc1ccc(O)cc1)c1ccc(O)cc1` (stereo not drawn) [DPN], in assay [1], the “ΔTm, thermal stabilization of ERRβ” value came to 0.2 °C. Moreover, the “ΔTm, thermal stabilization of ERRα” value in assay [3] is −0.2 °C. The “ΔTm, thermal stabilization of ERRγ” value in assay [5] was found to be 0.3 °C.

Consider `CCc1cc(O)ccc1Cl` [4chloro-3ethyl-phenol], for which the thermal shift (ΔTm) at 100 µM in assay [1] was 0.4 °C; in assay [3] it was 0.2 °C; in assay [5], 4.1 °C. Further, the Kd in assay [1] is 18000 nM; in assay [5], 722 nM.

`C[C@]12CC[C@@H]3c4ccc(O)cc4C[C@@H](CCCCCCCCC[S+]([O-])CCCC(F)(F)C(F)(F)F)[C@H]3[C@@H]1CC[C@@H]2O` (stereo partly drawn) [ICI-182780]: the ΔTm at 100 µM in assay [1] came to 0 °C; in assay [2] (setting [10]), 13.9 °C; in assay [3], 0 °C; in assay [4] (setting [6]) it was 16.7 °C; in assay [5], 0 °C.

For the compound `CCCc1c(-c2ccc(O)cc2)nn(-c2ccc(O)cc2)c1-c1ccc(O)cc1` [PPT], in assay [1], the “ΔTm, thermal stabilization of ERRβ” value was −3.5 °C. For the same compound, in assay [2] (setting [7]), the “ΔTm, thermal stabilization of ERα” value came out at 11.7 °C. Further, the figures for the Kd in assay [2] (setting [8]) and in assay [4] were 38.7 nM and 58.3 nM, respectively. The “ΔTm, thermal stabilization of ERRα” value in assay [3] was −2.3 °C. Moreover, in assay [4] (setting [9]), the “ΔTm, thermal stabilization of ERβ” value turned out to be 9.5 °C. Further, the “ΔTm, thermal stabilization of ERRγ” value in assay [5] was −1.8 °C.

For `C[C@]12CC[C@@H]3c4ccc(O)cc4CC[C@H]3[C@@H]1CC[C@@H]2O` [17-β-estradiol], in assay [1], the “ΔTm, thermal stabilization of ERRβ” value is −0.1 °C. In assay [5], the “ΔTm, thermal stabilization of ERRγ” value stood at 0.6 °C.

For the compound `C[C@]12CC[C@@H]3c4ccc(O)cc4CC[C@H]3[C@@H]1CC[C@H]2O` [17-α-estradiol], in assay [1], the “ΔTm, thermal stabilization of ERRβ” value came out at 0.0 °C. Also, the “ΔTm, thermal stabilization of ERRγ” value in assay [5] was determined as 1.3 °C.

For the compound `Oc1ccc(/C=C/c2cc(O)cc(O)c2)cc1` [resvesterol], the “ΔTm, thermal stabilization of ERRβ” value in assay [1] was determined as 0.2 °C. The “ΔTm, thermal stabilization of ERRα” value in assay [3] is 0.0 °C. In addition, the “ΔTm, thermal stabilization of ERRγ” value in assay [5] stood at 0.4 °C.

For the compound `O=C(c1ccc(OCCN2CCCCC2)cc1)c1c(-c2ccc(O)cc2)sc2cc(O)ccc12` [raloxifene], in assay [4] (setting [6]), the thermal shift (ΔTm) at 100 µM was 11.9 °C.

`O=c1c(-c2ccc(O)cc2)coc2cc(O)ccc12` [Daidzein]: the thermal shift (ΔTm) at 100 µM in assay [1] is 0.3 °C; in assay [2] (setting [10]), 4.1 °C; in assay [3], 0 °C; in assay [4] (pH 8, read-out: ΔTm, thermal stabilization of ERβ) it was 8.9 °C; in assay [5], -0.1 °C. Further, the “Interaction with / stabilization of ERRβ, in words” value in assay [1] (ThermoFluor) is “did not interact”. Further, the “Interaction with / stabilization of ERRα, in words” value in assay [3] (ThermoFluor) is listed as “did not interact”. In addition, the “Interaction with / stabilization of ERRγ, in words” value in assay [5] (ThermoFluor) is listed as “did not interact”.

As for 4-bromocresol, the “ΔTm, thermal stabilization of ERRβ” value in assay [1] was determined as 0.5 °C. For the same compound, the Kd in assay [1] (calculated at reference temperature 25 °C from ΔTm of Table II, ΔHu 155 kcal/mol) was 17200 nM; in assay [5] (calculated at reference temperature 25 °C from ΔTm of Table II, ΔHu 165 kcal/mol), 633 nM. Besides, the “ΔTm, thermal stabilization of ERRα” value in assay [3] was 0.1 °C. For the same compound, in assay [5], the “ΔTm, thermal stabilization of ERRγ” value was found to be 4.3 °C.
